Patent publication US5273903A, “Biotechnological process for the production of S-(+)-2,2-dimethylcyclopropanecarboxamide” (Lonza Ltd., priority 1991, dated 1993)
“And” between values parts separate entries of the source, which are not always exact repeats. Identical values can stand only once.

Columns and labels:
[1] = tested on: immobilized biocatalyst (polyethylene imine/glutaraldehyde treated cells); assay: Activity of immobilized cells (immobilized biocatalyst); format: cell-based, Comamonas acidovorans A:18; settings: cells immobilized by polyethylene imine/glutaraldehyde treatment
Protocol: After induction (corresponding to Example 3), the cells of Comamonas acidovorans A:18, were harvested. These cells were immobilized by a polyethylene imine/glutaraldehyde treatment (corresponding to Czechoslovakian Patent No. 251,111). […] The dry weight of the biocatalyst corresponded to 32 percent of the moist weight. Then, the biocatalyst (with 55 g moist weight) was suspended in 800 ml of boric acid (10 mM, pH 9.0) with 16 g of R,S-(±)-2,2-DMCPCA. After an incubation time of 68.8 hours at 37 C and at a stirring speed of 200 rpm, R-(-)-2,2-DMCPCA was completely reacted to R-(-)-2,2-DMCPCS, which corresponded to an optical purity (ee) of 98.2 percent and an analytically measured yield in S-(+)-2,2-DMCPCA of 40 percent.

[2] = tested on: R-(-)-2,2-DMCPCA-hydrolase; assay: Hydrolase activity during biotransformation with whole cells; format: cell-based, Pseudomonas sp. NSAK:42 (DSM No. 6433); settings: 0.2 percent by weight substrate; otherwise conditions of Example 3
Protocol: (§1) To determine the activity of the hydrolase, the microorganism suspension was adjusted to an optical density of 0.5 at 650 nm. As a medium, a phosphate buffer (10 mmol), pH 7.0, with 0.2 percent by weight of R,S-2,2-DMCPCA, was used. This suspension was incubated for 3 hours at 30° C. with shaking. The NH4^+ released by the hydrolase or the R-(-)-2,2-DMCPCS was measured and the activity reacted as g of R-(-)-2,2-DMCPCA was expressed /1/h/ optical density at 650 nm, provided that 1 mmol of formed NH4^+ equals 1 mmol of reacted R-(-)-2,2-DMCPCA.
(§2) Comamonas acidovorans A:18 was incubated on mineral salt medium-agar plates with glycerin as a C-source and ammonium sulfate as an N-source for 2 days at 30° C. With these plated-out microorganisms, an initial culture medium with the same composition was inoculated and incubated for 2 days at 30° C. […] After an incubation of about 25 hours at 37° C., R-(-)-2,2-DMCPCA was completely reacted to R-(-)-2,2-DMCPCS, which corresponded to an optical purity (ee) of 100 percent and an analytically measured yield in S-(+)-2,2-DMCPCA of 46.7 percent. […]
Analogously to Example 1, Pseudomonas sp. […] The biotransformation was performed with 0.2 percent by weight of R,S-(±)-2,2-DMCPCA, and the activity of the hydrolase was determined as 0.34 g/1/h/OD650nm.

[3] = tested on: R-(-)-2,2-DMCPCA-hydrolase; assay: Determination of activity of R-(-)-2,2-DMCPCA-hydrolase, microorganism suspension; format: cell-based, Comamonas acidovorans A:18 (DSM No. 6315); settings: phosphate buffer 10 mmol pH 7.0, 0.2 percent by weight substrate, 3 hours
Protocol: as §1, with “This suspension was incubated for 3 hours at 30° C. with shaking.” left out

[4] = tested on: R-(-)-2,2-DMCPCA-hydrolase; assay: Hydrolase activity during biotransformation with whole cells; format: cell-based, Bacterium sp. VIII:II (DSM No. 6316); settings: 0.2 percent by weight substrate; otherwise conditions of Example 3
Protocol: as §1, §2
In contrast to Example 3, the biotransformation in this microorganism was performed with 0.2 percent by weight of R,S-(±)-2,2-DMCPCA, and the activity of the hydrolase was determined as 0.13 g/1/h/OD650nm.

[5] = tested on: cell-free enzyme extract (R-(-)-2,2-DMCPCA-hydrolase); assay: Activity of cell-free enzyme extract; format: biochemical, Comamonas acidovorans A:18; settings: 30 °C; phosphate buffer 10 mM pH 7.0; 0.2 percent by weight R,S-(±)-2,2-DMCPCA; about 0.8 mg of protein
Protocol: After induction, the cells of Comamonas acidovorans A:18 were concentrated to an optical density at 650 nm from 210 to 95 ml in the HEPES buffer (10 mM, pH 7.0). Then, the cells were broken down twice in the French press at a pressure of 1200 bars. To obtain a cell-free enzyme extract, all of this material was then centrifuged at 20,000 rpm for 20 minutes. In this cell-free enzyme extract, the amount of protein (measured according to the Bradford method) was then determined as 39.3 mg of protein/ml. To determine the activity of these cell-free enzymes, 20 microliters (about 0.8 mg of protein) of this cell-free enzyme extract was taken up in 4 ml of phosphate buffer (10 mM, pH 7.0), containing 0.2 percent by weight of R,S-(±)-2,2-DMCPCA and incubated at 30° C. Here, 2.5 g of R-(-)-2,2-DMCPCA/h/g of protein (3.64 micromol/min/g of protein) was converted to the corresponding acid.

| Compound | activity of the immobilized biocatalyst [1] | activity of the hydrolase [2] | hydrolase Activity ([3]; 25 °C) | hydrolase Activity ([3]; 30 °C) | hydrolase Activity ([3]; 37 °C) | hydrolase Activity ([3]; 45 °C) | hydrolase Activity ([3]; 48 °C) | hydrolase Activity ([3]; 55 °C) | hydrolase Activity ([3]; 65 °C) | activity of the hydrolase [4] | converted to the corresponding acid [5] |
| --- | --- | --- | --- | --- | --- | --- | --- | --- | --- | --- | --- |
| CC1(C)CC1C(N)=O (racemic) [R,S-(±)-2,2-DMCPCA, R,S-(±)-2,2-dimethylcyclopropanecarboxamide] | 1.6 micromol/min g of dry weight | 0.34 g/1/h/OD650nm | 0.25 g/l/h/OD650 | 0.5 g/l/h/OD650 | 1.0 g/l/h/OD650 | 1.5 g/l/h/OD650 | 1.8 g/l/h/OD650 | 1.9 g/l/h/OD650 | 0 g/l/h/OD650 | 0.13 g/1/h/OD650nm | – |
| CC1(C)C[C@H]1C(N)=O [R-(-)-2,2-DMCPCA, R-(-)-2,2-dimethylcyclopropanecarboxamide] | – | – | – | – | – | – | – | – | – | – | 2.5 g/h/g of protein and 3.64 micromol/min/g of protein |
